Test results from paper PMC11901902, “Design, Synthesis, and Cytotoxicity Evaluation of Novel Indolin-2-One Based Molecules on Hepatocellular Carcinoma HepG2 Cells as Protein Kinase Inhibitors” (Molecules, 2025).

Assays:
MCF-7 cells = assay: MTT cytotoxicity assay on MCF-7 cells; format: cell-based; details: Homo sapiens, MCF7; for viability at 1.25 µM: MCF-7, 1.25 µM; for viability at 1.25 µM / viability at 2.5 µM / viability at 5 µM / viability at 10 µM / viability at 20 µM / viability at 40 µM / viability at 80 µM / viability at 160 µM: Table S2; for viability at 2.5 µM: MCF-7, 2.5 µM; for viability at 5 µM: MCF-7, 5 µM; for viability at 10 µM: MCF-7, 10 µM; for viability at 20 µM: MCF-7, 20 µM; for viability at 40 µM: MCF-7, 40 µM; for viability at 80 µM: MCF-7, 80 µM; for viability at 160 µM: MCF-7, 160 µM; for IC50: MTT, 24 h treatment, mean of three experiments ± SEM, read-out: IC50 (µM) MCF-7
Experimental: (§1) Cytotoxic activity of the synthesized compounds was evaluated against HepG-2 and MCF-7 cancer cell lines using the MTT assay. The tested cell lines were obtained from the American Type Culture Collection (ATCC, […], USA) through the Tissue Culture Unit, The Egyptian Organization for Biological Products and Vaccines (Vacsera, Giza, Egypt). Indirubin, chemicals, and solvents were purchased from Sigma-Aldrich (St. Louis, MO, USA). The cells were grown on RPMI-1640 medium supplemented with 10% inactivated fetal calf serum and 50 µg/mL gentamycin. The cells were maintained at 37 °C in a humidified atmosphere with 5% CO2 and were sub-cultured two to three times per week. For antitumor assays, the tumor cell lines were suspended in the medium at concentration 5 × 10^4 cell/well in Corning® 96-well tissue culture plates (Corning, Corning, NY, USA), then incubated for 24 h. The tested molecules were then added to 96-well plates (six replicates) to achieve six concentrations for each compound. Six vehicle controls with media or 0.5% DMSO were run for each 96-well plate as a control. After incubating for 24 h, the numbers of viable cells were determined by the MTT test. Briefly, the media was removed from the 96 well plate and replaced with 100 µL of fresh culture RPMI 1640 medium without phenol red then 10 µL of the 12 mM MTT stock solution (5 mg of MTT in 1 mL of PBS) to each well including the untreated controls. The 96-well plates were then incubated at 37 °C and 5% CO2 for 4 h. An 85 µL aliquot of the media was removed from the wells, and 50 µL of DMSO was added to each well, mixed thoroughly with the pipette, and incubated at 37 °C for 10 min. Then, the optical density was measured at 590 nm with the microplate reader (SunRise, TECAN, Inc., Morrisville, NC, USA) to determine the number of viable cells, and the percentage of viability was calculated as […], where ODt is the mean optical density of wells treated with the tested sample and ODc is the mean optical density of untreated cells. The relation between surviving cells and drug concentration was plotted to obtain the survival curve of each tumor cell line after treatment with the specified compound. […] Each concentration was repeated four times.

Bcl-2 = assay: ELISA of Bcl-2 in treated HepG-2 cells; format: cell-based, human; details: HepG-2, compound at its IC50; ± S.E.M; control 360.90±31.71
Experimental: HepG2 cells were cultured in RPMI 10% + 5%FBS penicillin/streptomycin and were incubated at a humidity 5% CO2 and maintained at 37 °C. […] HepG2 cells were cultured as a monolayer in T-25 flasks and were seeded to attain 30% confluency prior to treatment. The main 100 mM stock dissolved in DMSO was diluted with the cell culture medium in order to reach the previously determined IC50 concentration of each of the three preparations. After that, HepG2 cells were collected via trypsinization and centrifuged at 10,000 rpm. The pellet was then rinsed with PBS and lysed in RIPA lysis buffer at 4 °C for 45 min, then centrifuged at 14,000 rpm for 20 min to remove the cellular debris. Lysates were then collected and stored at […] for protein determination. The levels of p53, p21, Fas-L, Bax, Bcl-2, and caspase 3/7 were assessed using the human P53 ELISA kit (Catalog No. ABIN6962151), P21 ELISA kit (Catalog No. ABIN6966175), Human Apoptosis Ligand (FAS-L), Bax ELISA kit, Human Factor-Related. Bcl-2 ELISA kit ELISA kit, and caspase3/7 ELISA kit (Elabscience Biotechnology Co., Wuhan, Hubei, China). The procedure of the used kits was done according to the manufacturer’s instructions. Briefly, equal amounts of cell lysates were loaded and then probed with specific antibodies. The samples were measured at 450 nm in ROBONEK P2000 ELISA reader. […]

HepG-2 cells = assay: MTT cytotoxicity assay on HepG-2 cells; format: cell-based, human; details: for fold higher cytotoxicity than indirubin: HepG-2 cells, relative to indirubin; for viability at 1.25 µM / viability at 2.5 µM / viability at 5 µM / viability at 10 µM / viability at 20 µM / viability at 40 µM / viability at 80 µM / viability at 160 µM / IC50: Homo sapiens, HepG2; for viability at 1.25 µM: HepG-2, 1.25 µM; for viability at 1.25 µM / viability at 2.5 µM / viability at 5 µM / viability at 10 µM / viability at 20 µM / viability at 40 µM / viability at 80 µM / viability at 160 µM: Table S1; for viability at 2.5 µM: HepG-2, 2.5 µM; for viability at 5 µM: HepG-2, 5 µM; for viability at 10 µM: HepG-2, 10 µM; for viability at 20 µM: HepG-2, 20 µM; for viability at 40 µM: HepG-2, 40 µM; for viability at 80 µM: HepG-2, 80 µM; for viability at 160 µM: HepG-2, 160 µM; for IC50: MTT, 24 h treatment, mean of three experiments ± SEM
Experimental: as §1

caspase 3/7 = assay: ELISA of caspase 3/7 in treated HepG-2 cells; format: cell-based, human; details: for increase of caspase 3/7 levels compared with untreated cells: HepG-2, compound at its IC50, 24 h; for Concentration of caspases 3/7: HepG-2, compound at its IC50, ± S.E.M, control 11.90±1.71
Experimental: HepG2 cells were cultured in RPMI 10% + 5%FBS penicillin/streptomycin and were incubated at a humidity 5% CO2 and maintained at 37 °C. […] HepG2 cells were cultured as a monolayer in T-25 flasks and were seeded to attain 30% confluency prior to treatment. The main 100 mM stock dissolved in DMSO was diluted with the cell culture medium in order to reach the previously determined IC50 concentration of each of the three preparations. After that, HepG2 cells were collected via trypsinization and centrifuged at 10,000 rpm. The pellet was then rinsed with PBS and lysed in RIPA lysis buffer at 4 °C for 45 min, then centrifuged at 14,000 rpm for 20 min to remove the cellular debris. Lysates were then collected and stored at […] for protein determination. The levels of p53, p21, Fas-L, Bax, Bcl-2, and caspase 3/7 were assessed using the human P53 ELISA kit (Catalog No. ABIN6962151), P21 ELISA kit (Catalog No. ABIN6966175), Human Apoptosis Ligand (FAS-L), Bax ELISA kit, Human Factor-Related. Bcl-2 ELISA kit ELISA kit, and caspase3/7 ELISA kit (Elabscience Biotechnology Co., Wuhan, Hubei, China). The procedure of the used kits was done according to the manufacturer’s instructions. Briefly, equal amounts of cell lysates were loaded and then probed with specific antibodies. The samples were measured at 450 nm in ROBONEK P2000 ELISA reader. The analysis was confirmed with three different sets of extracts. All experiments were done in triplicate (Tables S6–S9).

Compound | viability at 1.25 µM (MCF-7 cells) | viability at 2.5 µM (MCF-7 cells) | viability at 5 µM (MCF-7 cells) | viability at 10 µM (MCF-7 cells) | viability at 20 µM (MCF-7 cells) | viability at 40 µM (MCF-7 cells) | viability at 80 µM (MCF-7 cells) | viability at 160 µM (MCF-7 cells) | IC50 (MCF-7 cells) | Concentration of Bcl-2 (Bcl-2) | fold higher cytotoxicity than indirubin (HepG-2 cells) | viability at 1.25 µM (HepG-2 cells) | viability at 2.5 µM (HepG-2 cells) | viability at 5 µM (HepG-2 cells) | viability at 10 µM (HepG-2 cells) | viability at 20 µM (HepG-2 cells) | viability at 40 µM (HepG-2 cells) | viability at 80 µM (HepG-2 cells) | viability at 160 µM (HepG-2 cells) | IC50 (HepG-2 cells) | also measured
O=C1Nc2ccc(Cl)cc2C1=Nc1ccc2nc[nH]c(=O)c2c1 [Compound 9, 6-(5-Chloro-2-oxo-1,2-dihydro-indol-3-ylideneamino)-3H-quinazolin-4-one] | 90.5 ± 7.8% | 72.8 ± 6.3% | 64.1 ± 4.5% | 49 ± 2% | 34.4 ± 0.2% | 18.2 ± 1% | 14.8 ± 1.3% | 8.7 ± 1.2% | 7.54 ± 0.71 µM | 90.15 ± 8.27 pg/mL | 2.2–2.7 fold | 61.3 ± 3.6% | 54.4 ± 3.1% | 34.8 ± 0.9% | 28.6 ± 2.1% | 23.1 ± 2.4% | 19.6 ± 2% | 16.3 ± 1.7% | 12.9 ± 1.5% | 2.53 ± 0.11 µM | increase of caspase 3/7 levels compared with untreated cells (caspase 3/7): 5.3 fold; Concentration of caspases 3/7 (caspase 3/7): 62.13 ± 5.27 pg/mL
O=C1Nc2ccc(Cl)cc2C1=Nc1ccc(-c2nc3ccccc3c(=O)[nH]2)cc1 [Compound 20, 2-[4-(5-Chloro-2-oxo-1,2-dihydro-indol-3-ylideneamino)-phenyl]-3H-quinazolin-4-one] | 92.4 ± 5.7% | 84.3 ± 4.8% | 76.7 ± 4.2% | 67.9 ± 3.4% | 47.1 ± 3% | 24.6 ± 1.9% | 7.77 ± 0.9% | 4.1 ± 0.1% | 5.28 ± 0.22 µM | 160.32 ± 10.82 pg/mL | 2.2–2.7 fold | 58.2 ± 3.3% | 52.1 ± 2.9% | 36.7 ± 1.2% | 29.4 ± 2.5% | 21.7 ± 2% | 18.4 ± 1.8% | 15.2 ± 1.5% | 11.8 ± 1.3% | 3.08 ± 0.35 µM | increase of caspase 3/7 levels compared with untreated cells (caspase 3/7): 3.2 fold; Concentration of caspases 3/7 (caspase 3/7): 37.32 ± 4.82 pg/mL
